{
  "source": "patent US7264314B2",
  "about": "“Adrenocorticotropic hormone analogs and related methods” (priority 2004, dated 2007)",
  "key": {"[1]": {"test_system": "corticosterone production by explanted mouse adrenal halves", "assay": "in vitro Serum-free Adrenal Inhibition Assay", "type": "cell-based", "method": "A series of separate in vitro Serum-Free Adrenal Corticosteroid Inhibition Assay were performed to identify ACTH analogs that inhibit ACTH-induced adrenal hormone production in vitro. The concentration of corticosterone was measured according to the procedure of Example 4 in a serum-free culture medium containing explanted adrenal membrane and unmodified ACTH, AT814 ACTH analog (SEQ ID NO:20), or a combination of ACTH and AT814 at 100 ng/mL each. […] Corticosterone levels were taken at 2.0 hours after the adrenal membrane was placed in the serum free M199 medium, and each corticosterone level in Table 5 is an average of five samples.\nThe in vitro Serum-free Adrenal Inhibition Assay was performed according the following method. First, adrenals were removed from mice, dissected free of fat, and cut in half. See Costa, J L, et al., “Mutational analysis of evolutionarily conserved ACTH residues,” Gen Comp Endocrinol. 136:12–16 (2004); and Weber, M M, et al., “Postnatal overexpression of insulin-like growth factor II in transgenic mice is associated with adrenocortical hyperplasia and enhanced steroidogenesis,” Endocrinology 140:1537–1543 (1999), incorporated herein by reference.\nSecond, each adrenal half was placed into an individual well of a 4-well dish, one dish per mouse. Adrenal halves were incubated at 5% CO2, 37° C., in 0.5 ml serum-free medium (M199; Invitrogen) for 30 minutes to equilibrate.\nThird, medium was removed and replaced by 0.5 ml M199 containing ACTH, AT814, or both, at 100 ng/ml each; controls had no peptides added.\nFourth, after 2 hours of incubation, the medium was removed, pooled for all four halves from each mouse, and assayed by corticosterone using standard RIA methods. corticosterone was determined by competitive radioimmunoassay (^125I RIA kit; ICN, Costa Mesa, Calif.) according to the manufacturer's recommendations. One microliter of serum was used per assay sample. Samples were run in duplicates."}, "[2]": {"test_system": "serum corticosterone in dexamethasone-suppressed mice", "assay": "in vivo Serum Corticosteroid Induction Assay", "design": "species or system FVB/N mice", "details": "compared to unmodified mACTH(1–24); 1 μg s.c.; blood one hour after administration", "method": "An in vivo Serum Corticosteroid Induction Assay measures the level of corticosteroid or corticosterone in the blood stream of a subject. More specifically, the in vivo Serum Corticosteroid Induction Assay can include the following steps: first, an agent to suppress endogenous ACTH production was administered to a mouse subject, such as an intraperitoneal injection of dexamethasone; second, after waiting a suitable period of time for suppression of endogenous ACTH production (e.g., 1.5–2.0 hours), a test compound can be administered to the mouse by a suitable method, such as intraperitoneal or subcutaneous injection; and third, after waiting a suitable period of time (e.g., 1 hour) for action of the injected test compound, a blood sample can be taken from the subject and the level of serum corticosterone can be determined by a suitable method, such as a competitive radioimmunoassay using ^125I RIA kit (ICN, Costa Mesa, Calif.). Example 1 describes a murine in vivo Serum Corticosteroid Induction Assay in detail.\nThe corticosteroid or corticosterone secretion induced in vivo by an ACTH analog compound was compared to the level of corticosteroid secretion produced by an unmodified ACTH compound by measuring blood serum corticosteroid after administering either the ACTH or ACTH analog as test compounds. […] ACTH analog compositions with decreased function were identified by measuring corticosterone levels using standard radioimmunoassay (RIA) analysis on blood samples collected one hour after administering the mACTH(1–24) or ACTH analog compound to dexamethasone-suppressed mice. In FIG. 1, the potency of various ACTH analog peptides is expressed as per cent induction of corticosterone, with mouse ACTH being 100%. […] The percent of corticosterone induction 12 of ACTH analog Compounds in Samples 2–10 are shown as a percentage of the concentration of serum corticosterone 20 measured for unmodified mACTH(1–24) in the in vivo Serum Corticosteroid Adrenal Induction Assay. The structural modifications and measured percentage reduction in serum measured for Samples 2–10 in FIG. 1 are shown in Table 3 below.\nThe in vivo Serum Corticosteroid Induction Assay was performed according the following method. First, two to three month-old male FVB/N mice from our colony, five per group, were injected intraperitoneally with dexamethasone (0.4 mg/0.1 ml PBS per mouse; Sigma, St. Louis, Mo.) to suppress their endogenous ACTH production. See Hajos, G T et al., “Studies of the potency of polypeptides with ACTH action by a new method based on continuous measurement of plasma corticosterone,” Steroids Lipids Res 3:225–228 (1972), Costa, J L, et al., “Mutational analysis of evolutionarily conserved ACTH residues,” Gen Comp Endocrinol, 136:12–16 (2004), and Karpac, J, et al., “Development, Maintenance, and Function of the Adrenal Gland in Early Postnatal Pro-opiomelanocortin Null Mutant Mice,” Endocrinology (2005), published online ahead of print Feb. 24, 2005, all of which are incorporated herein by reference.\nSecond, ninety to one hundred twenty minutes later, the dexamethasone-suppressed mice were injected subcutaneously between the shoulder blades with either unmodified mACTH(1–24) or one of several ACTH analog peptide compounds (1 μg/0.1 mL PBS/0.5% BSA), or with vehicle alone (control) (0.1 mL PBS/0.5% BSA). The following ACTH analog peptide compounds were administered to separate mice: 1: murine ACTH1–24; 2: V26F,E30K; 3: P19W,K21E,Y23R; 4: E30K,P36R; 5: ALA19–24; 6: V26F,P36R; 7: P19W, K21E; 8: P19W,K21A,delY23; 9: P19W,K21A; 10: KRRP16-19RMW (AT814) (SEQ ID NO:20).\nThird, one hour later, blood was collected within less than 1 minute from a small incision in the tail, and serum was flash-frozen and stored at −80° C. until assayed. Serum corticosterone was determined by competitive radioimmunoassay (^125I RIA kit; ICN, Costa Mesa, Calif.) according to the manufacturer's recommendations. One microliter of serum was used per assay sample. […]"}},
  "note": "No end group written: not given here.",
  "data": [
    {"substance": "N-Ser^1-Tyr-Ser-Met-Glu^5-His-Phe-Arg-Trp-Gly^10-Lys-Pro-Val-Gly-Lys^15-Arg-Ala-Ala-Trp-Val^20-Lys-Val-Tyr-Pro-Ac (SYSMEHFRWGKPVGKRAAWVKVYP; not fully specified (C-terminus); printed as N-Ser1-Tyr-Ser-Met-Glu5-His-Phe-Arg-Trp-Gly10-Lys-Pro-Val-Gly-Lys15-Arg-Ala-Ala-Trp-Val20-Lys-Val-Tyr-Pro-Ac) [AT814]", "values": [
      {"measurement": "corticosterone induction relative to ACTH (FIG. 4)", "setting": "[1]; AT814 alone", "result": "negligible amount of corticosterone induction"},
      {"measurement": "reduction of corticosterone induction compared to unmodified ACTH alone", "setting": "[1]; equal amounts of AT814 and unmodified ACTH", "result": "about 65%"},
      {"measurement": "corticosterone level in M199 serum-free medium", "setting": "[1]; peptide alone, 100 ng/mL, 2 hours after addition, average of five samples, listed as (KKRRP15-19KRAAW) mACTH(1–24)", "result": "about 290 mg/mL"},
      {"measurement": "Percent reduction in serum corticosteroid", "setting": "[2]", "result": 100, "unit": "%"}
    ]}
  ]
}
